ChEMBL document CHEMBL5291721, “A preclinical secondary pharmacology resource illuminates target-adverse drug reaction associations of marketed drugs” (Nat Commun, 2023)

Experiments:
[1] = biological target: Kappa-type opioid receptor (Homo sapiens, UniProt P41145)
[2] = biological target: T1, Muscarinic acetylcholine receptor M2 (Homo sapiens, UniProt P08172); format: functional, cell-based
T1 sequence (P08172 whole entry): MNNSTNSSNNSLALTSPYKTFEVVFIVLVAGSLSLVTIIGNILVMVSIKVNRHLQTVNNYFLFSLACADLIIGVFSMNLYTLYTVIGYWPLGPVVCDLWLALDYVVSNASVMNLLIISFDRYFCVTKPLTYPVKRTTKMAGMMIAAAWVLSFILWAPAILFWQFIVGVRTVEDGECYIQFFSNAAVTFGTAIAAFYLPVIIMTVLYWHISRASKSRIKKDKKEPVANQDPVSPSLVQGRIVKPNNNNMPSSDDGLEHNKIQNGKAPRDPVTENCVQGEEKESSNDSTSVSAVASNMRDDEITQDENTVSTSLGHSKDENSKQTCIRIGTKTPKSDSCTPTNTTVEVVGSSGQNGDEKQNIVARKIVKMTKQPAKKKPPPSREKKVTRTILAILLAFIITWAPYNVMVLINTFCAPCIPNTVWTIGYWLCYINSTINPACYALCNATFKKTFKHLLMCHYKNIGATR

[3] = biological target: 5-hydroxytryptamine receptor 2B (Homo sapiens, UniProt P41595); format: functional, cell-based
Sequence of 5-hydroxytryptamine receptor 2B (P41595 whole entry): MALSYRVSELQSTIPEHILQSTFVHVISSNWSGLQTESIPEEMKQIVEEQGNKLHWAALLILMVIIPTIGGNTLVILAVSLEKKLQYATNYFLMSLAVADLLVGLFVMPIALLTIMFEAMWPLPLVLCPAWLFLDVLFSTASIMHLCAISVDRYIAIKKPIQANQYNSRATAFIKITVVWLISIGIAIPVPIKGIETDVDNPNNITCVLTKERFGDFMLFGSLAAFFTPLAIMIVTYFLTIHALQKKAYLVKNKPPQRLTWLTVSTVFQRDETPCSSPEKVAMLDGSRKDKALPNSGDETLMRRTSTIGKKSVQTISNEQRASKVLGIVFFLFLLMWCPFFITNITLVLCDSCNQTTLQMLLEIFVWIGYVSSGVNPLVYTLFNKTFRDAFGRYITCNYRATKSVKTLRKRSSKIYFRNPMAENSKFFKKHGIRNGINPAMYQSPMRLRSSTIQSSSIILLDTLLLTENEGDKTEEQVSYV

[4] = biological target: Neuronal acetylcholine receptor subunit alpha-4 (Homo sapiens, UniProt P43681)
Sequence of Neuronal acetylcholine receptor subunit alpha-4 (P43681 whole entry): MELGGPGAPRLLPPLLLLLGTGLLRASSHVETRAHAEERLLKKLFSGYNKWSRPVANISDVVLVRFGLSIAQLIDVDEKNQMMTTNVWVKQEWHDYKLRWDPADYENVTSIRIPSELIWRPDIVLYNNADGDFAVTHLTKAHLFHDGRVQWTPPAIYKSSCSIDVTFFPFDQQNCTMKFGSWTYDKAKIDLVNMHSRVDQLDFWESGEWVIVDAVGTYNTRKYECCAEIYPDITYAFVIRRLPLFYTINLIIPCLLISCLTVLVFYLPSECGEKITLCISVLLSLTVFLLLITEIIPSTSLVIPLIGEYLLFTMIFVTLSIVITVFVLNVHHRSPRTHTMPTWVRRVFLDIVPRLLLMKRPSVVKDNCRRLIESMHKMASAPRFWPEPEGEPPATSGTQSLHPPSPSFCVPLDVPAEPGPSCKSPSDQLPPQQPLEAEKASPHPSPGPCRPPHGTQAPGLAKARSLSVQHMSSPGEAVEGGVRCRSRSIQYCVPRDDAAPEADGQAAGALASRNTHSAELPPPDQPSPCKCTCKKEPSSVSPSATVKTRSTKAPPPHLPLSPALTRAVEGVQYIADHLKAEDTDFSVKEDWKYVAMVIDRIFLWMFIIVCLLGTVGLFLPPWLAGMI

[5] = biological target: Gamma-aminobutyric acid receptor subunit alpha-1 (Rattus norvegicus, UniProt P62813)
Sequence of Gamma-aminobutyric acid receptor subunit alpha-1 (P62813 whole entry): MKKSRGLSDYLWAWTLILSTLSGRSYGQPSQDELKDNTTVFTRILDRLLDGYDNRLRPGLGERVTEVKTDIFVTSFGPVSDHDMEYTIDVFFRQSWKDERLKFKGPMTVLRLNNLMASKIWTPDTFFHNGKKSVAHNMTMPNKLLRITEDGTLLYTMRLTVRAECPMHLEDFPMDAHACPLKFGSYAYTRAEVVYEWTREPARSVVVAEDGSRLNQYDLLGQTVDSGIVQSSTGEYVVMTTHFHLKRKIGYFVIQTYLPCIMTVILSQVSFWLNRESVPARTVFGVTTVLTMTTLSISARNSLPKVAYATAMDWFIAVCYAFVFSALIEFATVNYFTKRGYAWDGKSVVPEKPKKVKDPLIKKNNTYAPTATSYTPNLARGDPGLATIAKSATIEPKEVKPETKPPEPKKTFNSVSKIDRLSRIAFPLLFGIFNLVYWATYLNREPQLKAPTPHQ

Thromboxane A2 receptor = biological target: T2, Thromboxane A2 receptor (Homo sapiens, UniProt P21731)
T2 sequence (P21731 whole entry): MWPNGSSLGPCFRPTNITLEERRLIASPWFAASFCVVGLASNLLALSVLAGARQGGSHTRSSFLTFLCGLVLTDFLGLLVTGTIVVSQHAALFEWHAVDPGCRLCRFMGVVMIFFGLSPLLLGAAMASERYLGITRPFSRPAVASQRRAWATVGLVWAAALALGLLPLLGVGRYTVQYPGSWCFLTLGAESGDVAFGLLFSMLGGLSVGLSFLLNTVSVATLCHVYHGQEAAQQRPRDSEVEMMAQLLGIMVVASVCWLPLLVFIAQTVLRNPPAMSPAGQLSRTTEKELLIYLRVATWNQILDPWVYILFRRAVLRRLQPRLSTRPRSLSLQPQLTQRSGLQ

[6] = biological target: Sodium-dependent dopamine transporter (Homo sapiens, UniProt Q01959)
Sequence of Sodium-dependent dopamine transporter (Q01959 whole entry): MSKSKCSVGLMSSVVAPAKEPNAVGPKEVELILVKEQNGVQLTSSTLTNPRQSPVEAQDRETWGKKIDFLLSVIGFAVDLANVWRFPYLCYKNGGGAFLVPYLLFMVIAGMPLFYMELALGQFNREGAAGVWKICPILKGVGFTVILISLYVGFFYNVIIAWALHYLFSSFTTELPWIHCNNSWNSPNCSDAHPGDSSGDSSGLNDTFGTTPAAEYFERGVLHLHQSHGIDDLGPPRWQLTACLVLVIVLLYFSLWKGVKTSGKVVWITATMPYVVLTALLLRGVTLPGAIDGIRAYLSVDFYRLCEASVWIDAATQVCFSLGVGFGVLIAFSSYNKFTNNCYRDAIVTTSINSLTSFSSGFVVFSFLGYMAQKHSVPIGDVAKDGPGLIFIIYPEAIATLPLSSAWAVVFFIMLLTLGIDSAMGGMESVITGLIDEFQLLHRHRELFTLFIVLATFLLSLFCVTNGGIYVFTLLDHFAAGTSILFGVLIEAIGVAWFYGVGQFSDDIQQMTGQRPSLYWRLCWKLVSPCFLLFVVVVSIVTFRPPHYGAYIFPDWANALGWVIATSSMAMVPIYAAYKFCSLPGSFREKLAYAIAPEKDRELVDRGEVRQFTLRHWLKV

Adenosine receptor A2a = Adenosine receptor A2a (Homo sapiens, UniProt P29274)
Sequence of Adenosine receptor A2a (P29274 whole entry): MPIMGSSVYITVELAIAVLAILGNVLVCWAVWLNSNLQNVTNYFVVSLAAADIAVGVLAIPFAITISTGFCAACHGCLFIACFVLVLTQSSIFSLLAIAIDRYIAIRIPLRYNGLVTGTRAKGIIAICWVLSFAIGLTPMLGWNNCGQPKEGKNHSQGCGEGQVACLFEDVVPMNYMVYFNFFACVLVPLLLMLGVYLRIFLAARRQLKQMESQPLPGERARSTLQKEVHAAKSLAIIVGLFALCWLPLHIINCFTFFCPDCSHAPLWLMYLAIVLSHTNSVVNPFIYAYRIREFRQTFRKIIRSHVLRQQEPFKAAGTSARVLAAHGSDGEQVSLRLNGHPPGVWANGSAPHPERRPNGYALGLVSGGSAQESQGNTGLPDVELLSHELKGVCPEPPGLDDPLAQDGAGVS

[7] = biological target: T3, Alpha-2A adrenergic receptor (Homo sapiens, UniProt P08913); format: functional, cell-based
T3 sequence (P08913 whole entry): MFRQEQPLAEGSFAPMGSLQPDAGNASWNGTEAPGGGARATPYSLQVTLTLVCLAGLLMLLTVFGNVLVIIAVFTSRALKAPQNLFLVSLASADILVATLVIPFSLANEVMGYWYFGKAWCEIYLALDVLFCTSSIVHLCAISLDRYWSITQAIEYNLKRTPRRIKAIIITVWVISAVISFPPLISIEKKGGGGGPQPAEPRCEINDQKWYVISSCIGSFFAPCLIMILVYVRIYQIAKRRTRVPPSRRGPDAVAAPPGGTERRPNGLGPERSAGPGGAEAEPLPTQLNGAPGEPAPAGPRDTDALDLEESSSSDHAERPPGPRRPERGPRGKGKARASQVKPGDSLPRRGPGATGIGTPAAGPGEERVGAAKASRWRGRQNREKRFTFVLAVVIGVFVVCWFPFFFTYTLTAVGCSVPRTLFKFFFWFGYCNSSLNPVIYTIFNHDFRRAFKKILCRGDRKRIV

[8] = biological target: T4, 5-hydroxytryptamine receptor 1A (Homo sapiens, UniProt P08908); format: functional, cell-based
T4 sequence (P08908 whole entry): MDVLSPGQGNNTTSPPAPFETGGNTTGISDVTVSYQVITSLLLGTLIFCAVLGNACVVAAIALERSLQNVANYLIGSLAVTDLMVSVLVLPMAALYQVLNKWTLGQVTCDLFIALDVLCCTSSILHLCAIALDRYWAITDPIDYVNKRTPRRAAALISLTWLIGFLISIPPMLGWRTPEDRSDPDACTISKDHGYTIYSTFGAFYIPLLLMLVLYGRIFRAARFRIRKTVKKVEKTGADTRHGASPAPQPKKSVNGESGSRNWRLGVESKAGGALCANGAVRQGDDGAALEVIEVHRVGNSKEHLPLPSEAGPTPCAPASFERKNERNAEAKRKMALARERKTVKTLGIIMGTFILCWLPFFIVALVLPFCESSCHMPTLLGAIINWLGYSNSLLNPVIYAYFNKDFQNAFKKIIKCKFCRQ

Mu-type opioid receptor = Mu-type opioid receptor (Homo sapiens, UniProt P35372); assay: biochemical; format: functional
Sequence of Mu-type opioid receptor (P35372 whole entry): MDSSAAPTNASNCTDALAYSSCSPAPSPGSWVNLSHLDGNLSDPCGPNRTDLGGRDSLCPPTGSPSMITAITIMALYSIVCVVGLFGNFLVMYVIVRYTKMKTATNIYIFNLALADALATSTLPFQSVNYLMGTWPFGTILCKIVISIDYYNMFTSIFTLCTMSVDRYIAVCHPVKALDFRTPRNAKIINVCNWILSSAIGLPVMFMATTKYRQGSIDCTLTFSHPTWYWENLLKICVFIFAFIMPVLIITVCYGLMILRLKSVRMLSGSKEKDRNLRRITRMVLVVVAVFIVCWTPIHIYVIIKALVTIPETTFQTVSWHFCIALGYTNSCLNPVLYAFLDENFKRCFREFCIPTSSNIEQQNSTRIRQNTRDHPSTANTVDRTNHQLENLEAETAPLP

[9] = biological target: 3',5'-cyclic-AMP phosphodiesterase 4D (Homo sapiens, UniProt Q08499); format: functional
Sequence of 3',5'-cyclic-AMP phosphodiesterase 4D (Q08499 whole entry): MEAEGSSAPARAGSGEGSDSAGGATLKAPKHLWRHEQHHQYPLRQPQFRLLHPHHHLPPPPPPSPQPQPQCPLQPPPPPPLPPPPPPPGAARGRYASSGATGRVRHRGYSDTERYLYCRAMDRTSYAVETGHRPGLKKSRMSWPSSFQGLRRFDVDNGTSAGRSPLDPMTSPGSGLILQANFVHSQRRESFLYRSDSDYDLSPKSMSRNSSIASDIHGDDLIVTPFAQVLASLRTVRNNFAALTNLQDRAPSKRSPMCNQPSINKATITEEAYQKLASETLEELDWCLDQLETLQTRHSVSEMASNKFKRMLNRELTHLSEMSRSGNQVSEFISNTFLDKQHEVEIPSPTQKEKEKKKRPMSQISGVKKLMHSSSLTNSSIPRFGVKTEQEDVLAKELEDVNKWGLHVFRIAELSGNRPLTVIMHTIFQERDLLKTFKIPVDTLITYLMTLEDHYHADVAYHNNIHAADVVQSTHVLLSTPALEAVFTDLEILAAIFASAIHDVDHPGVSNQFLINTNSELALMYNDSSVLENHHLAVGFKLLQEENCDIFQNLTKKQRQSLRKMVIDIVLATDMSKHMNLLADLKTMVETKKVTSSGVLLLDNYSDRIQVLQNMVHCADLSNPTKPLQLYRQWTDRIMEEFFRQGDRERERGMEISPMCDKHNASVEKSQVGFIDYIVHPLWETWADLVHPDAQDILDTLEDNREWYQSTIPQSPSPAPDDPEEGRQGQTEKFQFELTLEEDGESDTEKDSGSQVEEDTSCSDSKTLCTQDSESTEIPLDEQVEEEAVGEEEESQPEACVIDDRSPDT

[10] = biological target: T1, Muscarinic acetylcholine receptor M2; format: functional, cell-based; remark: listed apart in the source
[11] = biological target: T5, Muscarinic acetylcholine receptor M1 (Homo sapiens, UniProt P11229); format: functional
T5 sequence (P11229 whole entry): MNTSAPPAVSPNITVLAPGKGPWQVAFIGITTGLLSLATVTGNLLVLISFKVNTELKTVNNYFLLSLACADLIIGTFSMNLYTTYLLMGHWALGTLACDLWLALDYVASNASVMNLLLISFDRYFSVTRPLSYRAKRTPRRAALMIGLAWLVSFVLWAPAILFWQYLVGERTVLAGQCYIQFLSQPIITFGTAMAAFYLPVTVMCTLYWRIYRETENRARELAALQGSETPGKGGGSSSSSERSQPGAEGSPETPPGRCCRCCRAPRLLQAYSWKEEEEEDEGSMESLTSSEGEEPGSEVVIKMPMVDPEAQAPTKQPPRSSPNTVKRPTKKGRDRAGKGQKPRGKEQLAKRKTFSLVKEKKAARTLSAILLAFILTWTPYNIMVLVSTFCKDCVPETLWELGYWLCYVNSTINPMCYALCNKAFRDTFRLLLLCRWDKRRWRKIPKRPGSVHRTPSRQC
Also: assay procedure not described here.

Sequence of Kappa-type opioid receptor (P41145 whole entry): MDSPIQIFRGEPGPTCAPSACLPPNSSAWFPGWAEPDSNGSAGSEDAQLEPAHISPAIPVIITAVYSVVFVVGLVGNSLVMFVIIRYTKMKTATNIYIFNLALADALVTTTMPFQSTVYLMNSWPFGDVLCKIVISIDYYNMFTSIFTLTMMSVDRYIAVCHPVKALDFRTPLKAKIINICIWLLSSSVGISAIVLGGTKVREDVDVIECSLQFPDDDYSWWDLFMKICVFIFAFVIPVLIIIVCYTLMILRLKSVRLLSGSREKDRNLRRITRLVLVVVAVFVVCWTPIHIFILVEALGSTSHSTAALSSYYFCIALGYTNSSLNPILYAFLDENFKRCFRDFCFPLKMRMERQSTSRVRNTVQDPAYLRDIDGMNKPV

| Compound | AC50 [1] | AC50 [2] | AC50 [3] | AC50 [4] | AC50 [5] | AC50 (Thromboxane A2 receptor) | AC50 [6] | AC50 (Adenosine receptor A2a) | AC50 [7] | AC50 [8] | AC50 (Mu-type opioid receptor) | AC50 [9] | AC50 [10] | AC50 [11] |
| --- | --- | --- | --- | --- | --- | --- | --- | --- | --- | --- | --- | --- | --- | --- |
| NC(=O)CN1CCCC1=O | > 30 µM | > 30 µM | > 30 µM | > 30 µM | > 30 µM | > 30 µM | > 30 µM | > 30 µM | > 30 µM | > 30 µM | > 30 µM | > 30 µM | > 30 µM | – |
| O=C(O)c1ccccc1Nc1cc(Cl)ccc1C(=O)O [LOBENZARIT] | > 30 µM | > 30 µM | > 30 µM | > 30 µM | > 30 µM | > 30 µM | > 30 µM | > 30 µM | > 30 µM | > 30 µM | > 30 µM | > 30 µM | > 30 µM | > 30 µM |
| C[N@+]1(CCF)[C@@H]2CC[C@H]1C[C@@H](OC(=O)C(O)(c1ccccc1)c1ccccc1)C2 | 26 µM | 0.0145 µM | > 30 µM | > 30 µM | > 30 µM | > 30 µM | > 30 µM | > 30 µM | > 30 µM | > 30 µM | > 30 µM | > 30 µM | > 30 µM | 0.0066 µM |
| C=C[C@@]1(C)CC(=O)[C@]2(O)[C@@]3(C)[C@@H](O)CCC(C)(C)[C@@H]3[C@H](O)[C@H](OC(C)=O)[C@@]2(C)O1 [COLFORSIN] | > 30 µM | 11 µM | > 30 µM | > 30 µM | > 30 µM | > 30 µM | > 30 µM | > 30 µM | > 30 µM | > 30 µM | > 30 µM | > 30 µM | 1.9 µM | > 30 µM |
| CCC(COC(=O)c1cc(OC)c(OC)c(OC)c1)(c1ccccc1)N(C)C (centres undefined) [TRIMEBUTINE] | 0.19 µM | 1.2 µM | > 30 µM | 15 µM | > 30 µM | > 30 µM | 27 µM | > 30 µM | > 30 µM | > 30 µM | 0.2 µM | 26 µM | > 30 µM | > 30 µM |
| CCCCCC(=O)O[C@]1(C(C)=O)CC[C@H]2[C@@H]3CCC4=CC(=O)CC[C@]4(C)[C@H]3CC[C@@]21C [HYDROXYPROGESTERONE CAPROATE] | > 30 µM | > 30 µM | > 30 µM | > 30 µM | > 30 µM | > 30 µM | 21.3 µM | > 30 µM | > 30 µM | > 30 µM | > 30 µM | 25 µM | > 30 µM | > 30 µM |
| O=C(O)CCNC(=O)c1ccccc1 [BETAMIPRON] | > 30 µM | > 30 µM | > 30 µM | > 30 µM | > 30 µM | > 30 µM | > 30 µM | > 30 µM | > 30 µM | > 30 µM | > 30 µM | > 30 µM | > 30 µM | – |
| CCOC(=O)O[C@]1(C(=O)OCCl)CC[C@H]2[C@@H]3CCC4=CC(=O)C=C[C@]4(C)[C@H]3[C@@H](O)C[C@@]21C [LOTEPREDNOL ETABONATE] | > 30 µM | > 30 µM | > 30 µM | > 30 µM | > 30 µM | > 30 µM | > 30 µM | > 30 µM | > 30 µM | > 30 µM | > 30 µM | > 30 µM | > 30 µM | > 30 µM |
| CC(=O)SC[C@@H](C)C(=O)N1CCC[C@H]1C(=O)N[C@@H](Cc1ccccc1)C(=O)O | 21 µM | > 30 µM | > 30 µM | > 30 µM | > 30 µM | > 30 µM | > 30 µM | > 30 µM | > 30 µM | > 30 µM | > 30 µM | > 30 µM | > 30 µM | > 30 µM |
| CCN(CC)CCNC(=O)c1cc(S(C)(=O)=O)ccc1OC [TIAPRIDE] | > 30 µM | > 30 µM | > 30 µM | > 30 µM | > 30 µM | > 30 µM | > 30 µM | > 30 µM | > 30 µM | > 30 µM | > 30 µM | > 30 µM | > 30 µM | – |
| CC1=C(C)C(=O)C(C(CCCCCC(=O)O)c2ccccc2)=C(C)C1=O (centres undefined) [SERATRODAST] | > 30 µM | > 30 µM | > 30 µM | > 30 µM | > 30 µM | – | > 30 µM | > 30 µM | > 30 µM | > 30 µM | > 30 µM | 22 µM | > 30 µM | > 30 µM |
| C#CCOc1ccc(N)cc1C(=O)NCCCC [PARSALMIDE] | > 30 µM | > 30 µM | > 30 µM | > 30 µM | > 30 µM | > 30 µM | > 30 µM | > 30 µM | > 30 µM | > 30 µM | > 30 µM | > 30 µM | > 30 µM | > 30 µM |
| CCN(CC)C(=O)Nc1ccc(OCC(O)CNC(C)(C)C)c(C(C)=O)c1 (centres undefined) [CELIPROLOL] | > 30 µM | > 30 µM | > 30 µM | > 30 µM | > 30 µM | > 30 µM | > 30 µM | > 30 µM | > 30 µM | > 30 µM | > 30 µM | > 30 µM | > 30 µM | > 30 µM |
| CCN1CCCC1CNC(=O)c1cc(S(=O)(=O)CC)c(N)cc1OC (centres undefined) [AMISULPRIDE] | > 30 µM | > 30 µM | – | > 30 µM | > 30 µM | – | – | > 30 µM | > 30 µM | > 30 µM | > 30 µM | > 30 µM | > 30 µM | > 30 µM |
